Read-outs that look alike come from different tables or passages of the source.
Columns and labels:
PRC2 containing wt EZH2 = PRC2 containing wt EZH2 (Homo sapiens (Human), UniProt Q15910); test: EZH2 biochemical assay (IC50), 3H-SAM incorporation into biotinylated H3 peptide
In short: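 The PRC2 pentamer with wt EZH2 (30 pM) was pre-incubated for 3-5 h with 450 nM SAM plus 450 nM ³H-SAM, 2 µM H3K27me3 activating peptide and compound (0.8% DMSO) in Tris at pH 8.5. Biotinylated H3K27me1 peptide was added and the reaction ran 18-22 h at RT. Incorporated ³H was captured on streptavidin plates, and IC50 was taken from a four-parameter fit.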

[1] = test system: H3K27me3 mark in HeLa cells (EZH2); test: H3K27me3 Alpha Hela Assay (AlphaLISA); format: cell-based; settings: HeLa cells, 72 hrs, read-out: EZH2 Cell H3K27me3 Alpha HeLa (EC50 K27me3)
In short: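 HeLa cells (1,000/well) treated with ten 3-fold compound doses for 72 h at 37 °C; lysates extracted and H3K27me3 detected by AlphaLISA with anti-K27me3 acceptor beads, biotinylated anti-H3 (3 nM) and streptavidin donor beads. EC50 from DMSO-normalized dose-response curves; duplicate plate assessed viability.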

[2] = EZH2 (IC50), 30 pM PRC2 containing wt EZH2; 3-5 h pre-incubation
[3] = read-out: EZH2 (IC50); 30 pM PRC2 containing wt EZH2; 3-5 h pre-incubation
[4] = 30 pM PRC2 containing wt EZH2; 3-5 h pre-incubation; read-out: EZH2 (IC50)

Chain of PRC2 containing wt EZH2 (Q15910 whole entry): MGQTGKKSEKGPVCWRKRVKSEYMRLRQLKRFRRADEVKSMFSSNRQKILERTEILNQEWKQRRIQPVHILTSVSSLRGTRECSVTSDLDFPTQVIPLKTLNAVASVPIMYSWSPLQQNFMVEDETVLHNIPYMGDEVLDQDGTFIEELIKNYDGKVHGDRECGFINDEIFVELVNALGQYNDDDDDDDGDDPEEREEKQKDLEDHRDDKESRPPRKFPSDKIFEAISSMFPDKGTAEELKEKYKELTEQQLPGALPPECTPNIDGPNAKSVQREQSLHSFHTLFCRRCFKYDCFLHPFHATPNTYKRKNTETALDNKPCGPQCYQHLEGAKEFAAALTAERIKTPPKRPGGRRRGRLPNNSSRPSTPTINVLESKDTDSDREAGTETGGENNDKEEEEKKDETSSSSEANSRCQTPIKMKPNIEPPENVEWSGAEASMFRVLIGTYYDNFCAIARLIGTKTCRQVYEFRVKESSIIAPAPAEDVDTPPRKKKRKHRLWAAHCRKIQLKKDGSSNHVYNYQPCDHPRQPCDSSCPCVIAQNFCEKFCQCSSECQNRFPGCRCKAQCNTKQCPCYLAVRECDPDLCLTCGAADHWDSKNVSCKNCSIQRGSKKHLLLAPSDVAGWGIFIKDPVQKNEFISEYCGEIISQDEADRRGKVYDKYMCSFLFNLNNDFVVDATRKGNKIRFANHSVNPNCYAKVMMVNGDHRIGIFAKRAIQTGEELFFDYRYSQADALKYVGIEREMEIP
Chain of PRC2 containing wt EZH2 (O75530 whole entry partner): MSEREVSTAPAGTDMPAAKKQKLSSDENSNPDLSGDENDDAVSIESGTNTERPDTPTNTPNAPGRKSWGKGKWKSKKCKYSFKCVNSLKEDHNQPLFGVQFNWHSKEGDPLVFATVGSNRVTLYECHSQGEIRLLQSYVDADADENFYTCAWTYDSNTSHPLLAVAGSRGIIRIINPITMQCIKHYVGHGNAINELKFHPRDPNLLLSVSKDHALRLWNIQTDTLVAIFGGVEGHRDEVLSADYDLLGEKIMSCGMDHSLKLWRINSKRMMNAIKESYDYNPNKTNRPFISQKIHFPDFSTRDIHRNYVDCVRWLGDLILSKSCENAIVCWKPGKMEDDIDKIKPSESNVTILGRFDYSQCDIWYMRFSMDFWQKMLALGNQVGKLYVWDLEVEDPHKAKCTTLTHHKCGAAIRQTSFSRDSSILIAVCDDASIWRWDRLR
Chain of PRC2 containing wt EZH2 (Q15022 whole entry partner): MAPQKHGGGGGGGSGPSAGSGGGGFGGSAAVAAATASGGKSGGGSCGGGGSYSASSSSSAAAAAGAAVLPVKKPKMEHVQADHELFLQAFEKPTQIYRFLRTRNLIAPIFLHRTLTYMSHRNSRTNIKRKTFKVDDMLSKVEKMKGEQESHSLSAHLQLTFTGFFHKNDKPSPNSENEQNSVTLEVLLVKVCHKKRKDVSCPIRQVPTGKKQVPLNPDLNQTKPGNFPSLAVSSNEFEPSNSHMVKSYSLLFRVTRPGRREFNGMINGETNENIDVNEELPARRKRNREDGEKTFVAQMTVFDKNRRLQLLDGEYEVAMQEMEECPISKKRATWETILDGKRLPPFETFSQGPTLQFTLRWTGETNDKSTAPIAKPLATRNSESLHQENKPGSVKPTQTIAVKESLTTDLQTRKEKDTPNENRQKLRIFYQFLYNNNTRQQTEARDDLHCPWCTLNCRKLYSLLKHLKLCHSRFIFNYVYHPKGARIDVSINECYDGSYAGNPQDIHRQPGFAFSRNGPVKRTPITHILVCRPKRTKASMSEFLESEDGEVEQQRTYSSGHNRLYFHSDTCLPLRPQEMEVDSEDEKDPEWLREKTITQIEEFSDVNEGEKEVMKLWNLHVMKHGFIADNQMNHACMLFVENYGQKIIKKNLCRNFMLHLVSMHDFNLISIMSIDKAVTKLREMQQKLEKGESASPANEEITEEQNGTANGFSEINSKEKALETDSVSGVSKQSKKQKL
Chain of PRC2 containing wt EZH2 (Q09028 whole entry partner): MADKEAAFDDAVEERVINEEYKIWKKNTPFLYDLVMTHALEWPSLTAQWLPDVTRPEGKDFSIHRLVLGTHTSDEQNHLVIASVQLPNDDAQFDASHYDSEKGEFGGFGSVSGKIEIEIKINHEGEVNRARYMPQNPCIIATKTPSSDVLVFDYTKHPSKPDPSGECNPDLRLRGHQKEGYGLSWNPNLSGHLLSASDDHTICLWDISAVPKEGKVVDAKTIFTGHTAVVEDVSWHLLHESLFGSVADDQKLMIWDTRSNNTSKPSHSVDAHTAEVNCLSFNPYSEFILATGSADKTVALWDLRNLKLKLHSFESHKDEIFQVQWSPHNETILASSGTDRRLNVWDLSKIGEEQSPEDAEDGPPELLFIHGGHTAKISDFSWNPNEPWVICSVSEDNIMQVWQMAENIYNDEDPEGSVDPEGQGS
Chain of PRC2 containing wt EZH2 (Q6ZN18 whole entry partner): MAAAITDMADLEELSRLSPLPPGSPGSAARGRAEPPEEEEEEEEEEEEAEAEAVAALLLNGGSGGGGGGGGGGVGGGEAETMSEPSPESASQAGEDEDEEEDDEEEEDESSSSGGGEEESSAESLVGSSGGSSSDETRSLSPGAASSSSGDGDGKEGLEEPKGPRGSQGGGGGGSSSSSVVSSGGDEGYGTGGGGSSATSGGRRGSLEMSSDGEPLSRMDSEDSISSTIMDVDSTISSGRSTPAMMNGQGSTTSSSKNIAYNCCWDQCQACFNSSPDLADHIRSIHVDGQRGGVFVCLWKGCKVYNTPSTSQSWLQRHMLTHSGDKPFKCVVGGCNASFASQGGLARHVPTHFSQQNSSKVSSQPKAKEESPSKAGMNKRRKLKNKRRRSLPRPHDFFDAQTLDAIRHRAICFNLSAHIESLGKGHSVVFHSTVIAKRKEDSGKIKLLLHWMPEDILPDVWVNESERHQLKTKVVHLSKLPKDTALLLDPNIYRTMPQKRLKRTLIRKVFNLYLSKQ

SMILES | IC50 (PRC2 containing wt EZH2; [2]) | EC50 ([1]; Homo sapiens, HeLa, 72 h) | IC50 (PRC2 containing wt EZH2; [3]) | EC50 [1] | IC50 (PRC2 containing wt EZH2; [4])
CSc1cc(C)[nH]c(=O)c1CNC(=O)c1c(C)n([C@H](C)C2CCN(CC(F)(F)F)CC2)c2ncncc12 [Example 73, (R)-6-methyl-N-((6-methyl-4-(methylthio)-2-oxo-1,2-dihydropyridin-3-yl)methyl)-7-(1-(1-(2,2,2-trifluoroethyl)piperidin-4-yl)ethyl)-7H-pyrrolo[2,3-d]pyrimidine-5-carboxamide] | < 0.5 nM | < 10 nM | – | – | –
CSc1cc(C)[nH]c(=O)c1CNC(=O)c1c(C)n([C@H](C)C2OCC(N3CCC3(C)C)CO2)c2ccccc12 (single isomer, unassigned) [15 (isomer 2)] | – | – | < 0.5 nM | > 100 nM | –
CSc1cc(C)[nH]c(=O)c1CNC(=O)c1c(C)n([C@H](C)[C@H]2CCN(C3CC3)C[C@H]2F)c2ccccc12 [Example 56, 1-((R)-1-((3S,4R)-1-cyclopropyl-3-fluoropiperidin-4-yl)ethyl)-2-methyl-N-((6-methyl-4-(methylthio)-2-oxo-1,2-dihydropyridin-3-yl)methyl)-1H-indole-3-carboxamide] | < 0.5 nM | < 10 nM | – | – | –
CSc1cc(C)[nH]c(=O)c1CNC(=O)c1c(C)n([C@H](C)C2CCC(N3CC(F)(F)C3)CC2)c2ccccc12 (single isomer, unassigned) [23 (isomer 2)] | < 0.5 nM | – | – | < 10 nM | –
CSc1cc(C)[nH]c(=O)c1CNC(=O)c1c(C)n([C@H](C)C2CCC(N3CC(OC4CC4)C3)CC2)c2ncccc12 (single isomer, unassigned) [Example 30] | – | < 10 nM | – | – | < 0.5 nM
CSc1cc(C)[nH]c(=O)c1CNC(=O)c1c(C)n([C@H](C)C2CCC(N3CC(N(C)C)C3)CC2)c2ccccc12 (single isomer, unassigned) [148 (isomer 2)] | – | – | – | 10 to 100 nM | < 0.5 nM
CSc1cc(C)[nH]c(=O)c1CNC(=O)c1c(C)n([C@H](C)C2CCC(N3CC(F)C3)CC2)c2ccccc12 (single isomer, unassigned) [24 (isomer 2)] | – | – | < 0.5 nM | < 10 nM | –
CSc1cc(C)[nH]c(=O)c1CNC(=O)c1c(C)n([C@H](C)C2CCC(NC3COC3)CC2)c2ccccc12 (single isomer, unassigned) [2 (isomer 1)] | – | < 10 nM | – | – | < 0.5 nM
CSc1cc(C)[nH]c(=O)c1CNC(=O)c1c(C)n([C@H](C)C2CCC(NCC(F)(F)F)CC2)c2ncncc12 (stereo partly drawn) [Example 89, 6-methyl-N-((6-methyl-4-(methylthio)-2-oxo-1,2-dihydropyridin-3-yl)methyl)-7-((R)-1-(4-((2,2,2-trifluoroethyl)amino)cyclohexyl)ethyl)-7H-pyrrolo[2,3-d]pyrimidine-5-carboxamide] | – | 10 to 100 nM | – | – | < 0.5 nM
CSc1cc(C)[nH]c(=O)c1CNC(=O)c1c(C)n([C@H](C)C2CCC(N3CCCC3=O)CC2)c2ccccc12 (stereo partly drawn) [Example 72, 2-methyl-N-((6-methyl-4-(methylthio)-2-oxo-1,2-dihydropyridin-3-yl)methyl)-1-((R)-1-(4-(2-oxopyrrolidin-1-yl)cyclohexyl)ethyl)-1H-indole-3-carboxamide] | – | 10 to 100 nM | – | – | < 0.5 nM
CSc1cc(C)[nH]c(=O)c1CNC(=O)c1c(C)n([C@H](C)C2CCC(N3CC(F)C3)CC2)c2ncc(F)cc12 (single isomer, unassigned) [84 (isomer 2)] | – | – | < 0.5 nM | 10 to 100 nM | –
CSc1cc(C)[nH]c(=O)c1CNC(=O)c1c(C)n([C@H](C)C2CCC(N3CC(F)C3)CC2)c2ncccc12 (stereo partly drawn) [Example 65, 1-((R)-1-(4-(3-fluoroazetidin-1-yl)cyclohexyl)ethyl)-2-methyl-N-((6-methyl-4-(methylthio)-2-oxo-1,2-dihydropyridin-3-yl)methyl)-1H-pyrrolo[2,3-b]pyridine-3-carboxamide] | < 0.5 nM | < 10 nM | – | – | –
CSc1cc(C)[nH]c(=O)c1CNC(=O)c1c(C)n([C@H](C)C2CCC(N3CC(OCC(F)F)C3)CC2)c2ncccc12 (stereo partly drawn) [Example 116, 1-((R)-1-(4-(3-(2,2-difluoroethoxy)azetidin-1-yl)cyclohexyl)ethyl)-2-methyl-N-((6-methyl-4-(methylthio)-2-oxo-1,2-dihydropyridin-3-yl)methyl)-1H-pyrrolo[2,3-b]pyridine-3-carboxamide] | – | < 10 nM | – | – | < 0.5 nM
CSc1cc(C)[nH]c(=O)c1CNC(=O)c1c(C)n([C@H](C)C2CCC(NC3(CO)COC3)CC2)c2cc(F)ccc12 (single isomer, unassigned) [159 (isomer 2)] | – | – | – | 10 to 100 nM | < 0.5 nM
CSc1cc(C)[nH]c(=O)c1CNC(=O)c1c(C)n([C@H](C)C2CCC(NC3COC3)CC2)c2ncccc12 (single isomer, unassigned) [62 (isomer 1)] | – | – | – | 10 to 100 nM | < 0.5 nM
CSc1cc(C)[nH]c(=O)c1CNC(=O)c1c(C)n([C@H](C)C2CCC(N3CC[C@@H](F)C3)CC2)c2ccccc12 (single isomer, unassigned) [79 (isomer 2)] | – | – | < 0.5 nM | 10 to 100 nM | –
CSc1cc(C)[nH]c(=O)c1CNC(=O)c1c(C)n([C@H](C)CO)c2ccccc12 [Example 31, (R)-1-(1-hydroxypropan-2-yl)-2-methyl-N-((6-methyl-4-(methylthio)-2-oxo-1,2-dihydropyridin-3-yl)methyl)-1H-indole-3-carboxamide] | – | > 100 nM | – | – | > 5 nM
CSc1cc(C)[nH]c(=O)c1CNC(=O)c1c(C)n([C@H](C)C2CCN(C3CC(F)C3)CC2)c2ccccc12 (single isomer, unassigned) [64 (isomer 1)] | < 0.5 nM | 10 to 100 nM | – | – | –
CSc1cc(C)[nH]c(=O)c1CNC(=O)c1c(C)n([C@H](C)C2CCC(N3CC(OC(F)F)C3)CC2)c2ncc(F)cc12 (stereo partly drawn) [Example 122, 1-((R)-1-(4-(3-(difluoromethoxy)azetidin-1-yl)cyclohexyl)ethyl)-5-fluoro-2-methyl-N-((6-methyl-4-(methylthio)-2-oxo-1,2-dihydropyridin-3-yl)methyl)-1H-pyrrolo[2,3-b]pyridine-3-carboxamide] | – | < 10 nM | – | – | < 0.5 nM
CSc1cc(C)[nH]c(=O)c1CNC(=O)c1c(C)n([C@H](C)C2CCC(O)CC2)c2nc(C)ccc12 (stereo partly drawn) [Example 40, 1-((1R)-1-(4-hydroxycyclohexyl)ethyl)-2,6-dimethyl-N-((6-methyl-4-(methylthio)-2-oxo-1,2-dihydropyridin-3-yl)methyl)-1H-pyrrolo[2,3-b]pyridine-3-carboxamide] | 0.5 to 5 nM | > 100 nM | – | – | –
Cc1cc(SC(F)F)c(CNC(=O)c2c(C)n([C@H](C)C3CCN(CC(F)(F)F)CC3)c3ccccc23)c(=O)[nH]1 [Example 105, (R)-N-((4-((difluoromethyl)thio)-6-methyl-2-oxo-1,2-dihydropyridin-3-yl)methyl)-2-methyl-1-(1-(1-(2,2,2-trifluoroethyl)piperidin-4-yl)ethyl)-1H-indole-3-carboxamide] | – | 10 to 100 nM | – | – | 0.5 to 5 nM
CSc1cc(C)[nH]c(=O)c1CNC(=O)c1c(C)n([C@H](C)C2CCC(N3CC[C@@H](F)C3)CC2)c2ncc(Cl)cc12 (stereo partly drawn) [Example 107, 5-chloro-1-((R)-1-(4-((R)-3-fluoropyrrolidin-1-yl)cyclohexyl)ethyl)-2-methyl-N-((6-methyl-4-(methylthio)-2-oxo-1,2-dihydropyridin-3-yl)methyl)-1H-pyrrolo[2,3-b]pyridine-3-carboxamide] | – | 10 to 100 nM | – | – | < 0.5 nM
CSc1cc(C)[nH]c(=O)c1CNC(=O)c1c(C)n([C@@H](C)C2CN(CC(F)(F)F)C2)c2ccccc12 [Example 55, (S)-2-methyl-N-((6-methyl-4-(methylthio)-2-oxo-1,2-dihydropyridin-3-yl)methyl)-1-(1-(1-(2,2,2-trifluoroethyl)azetidin-3-yl)ethyl)-1H-indole-3-carboxamide] | 0.5 to 5 nM | 10 to 100 nM | – | – | –
CSc1cc(C)[nH]c(=O)c1CNC(=O)c1c(C)n([C@H](C)[C@H]2CC[C@H](N3CC(OC(F)F)C3)CC2)c2ncccc12 (single isomer, unassigned) [27 (isomer 1)] | – | < 10 nM | – | – | < 0.5 nM
CSc1cc(C)[nH]c(=O)c1CNC(=O)c1c(C)n([C@@H](C)[C@H]2OC[C@H](N3CCC34COC4)CO2)c2ccccc12 (single isomer, unassigned; isomer 2) [151 (isomer 2)] | – | – | – | > 100 nM | > 5 nM
CSc1cc(C)[nH]c(=O)c1CNC(=O)c1c(C)n([C@H](C)C2CCN(C3CC3)CC2)c2ccccc12 [Example 48, (R)-1-(1-(1-cyclopropylpiperidin-4-yl)ethyl)-2-methyl-N-((6-methyl-4-(methylthio)-2-oxo-1,2-dihydropyridin-3-yl)methyl)-1H-indole-3-carboxamide] | < 0.5 nM | < 10 nM | – | – | –
CCOC[C@@H](C)n1c(C)c(C(=O)NCc2c(SC)cc(C)[nH]c2=O)c2ccccc21 [Example 33, (R)-1-(1-ethoxypropan-2-yl)-2-methyl-N-((6-methyl-4-(methylthio)-2-oxo-1,2-dihydropyridin-3-yl)methyl)-1H-indole-3-carboxamide] | 0.5 to 5 nM | 10 to 100 nM | – | – | –
COC1CCC([C@@H](C)n2c(C)c(C(=O)NCc3c(SC)cc(C)[nH]c3=O)c3ccccc32)CC1 (single isomer, unassigned) [18 (isomer 1)] | < 0.5 nM | < 10 nM | – | – | –

Source: US11459315B2, “Modulators of methyl modifying enzymes, compositions and uses thereof” (Constellation Pharmaceuticals, Inc., priority 2017, dated 2022)
